Measurements from US20150094345A1, “PHARMACEUTICAL FORMULATION HAVING IMPROVED STABILITY” (priority 2012, published 2015).

Assay: 6-month stability study of the compositions (impurity concentrations)
Type: physicochemical

- concentration of the main decomposition product of amlodipine besylate (European Pharmacopeia: Impurity D) (any storage condition, 6-month stability testing period, composition containing ramipril and amlodipine): ≤ 0.05%
- stability of amlodipine besylate in the combination dosage form (until the end of the six-month stability testing period): remains stable
Compound: CCOC(=O)C1=C(COCCN)NC(C)=C(C(=O)OC)C1c1ccccc1Cl (centres unmarked) [amlodipine besylate]
